From patent US20020115640A1, “Farnesyltransferase inhibitors” (priority 2000, published 2002) come the findings set out here.

The inhibition is the percentage by which the read-out fell short of the control. A low value points to a response near the control. One may read the % Inhibition as the share of the control response that was lost under treatment. The low end stands for little suppression, the high end for strong suppression.

The target in one test is T1, farnesyltransferase (Rattus norvegicus, UniProt Q02293+Q04631).
T1 construct: The enzyme can be purified according to Cell, 62: 81-88 (1990), utilizing steps one, two, and three; from tissue; host or cells: rat brain
T1 sequence (Q02293 whole entry, one chain of several): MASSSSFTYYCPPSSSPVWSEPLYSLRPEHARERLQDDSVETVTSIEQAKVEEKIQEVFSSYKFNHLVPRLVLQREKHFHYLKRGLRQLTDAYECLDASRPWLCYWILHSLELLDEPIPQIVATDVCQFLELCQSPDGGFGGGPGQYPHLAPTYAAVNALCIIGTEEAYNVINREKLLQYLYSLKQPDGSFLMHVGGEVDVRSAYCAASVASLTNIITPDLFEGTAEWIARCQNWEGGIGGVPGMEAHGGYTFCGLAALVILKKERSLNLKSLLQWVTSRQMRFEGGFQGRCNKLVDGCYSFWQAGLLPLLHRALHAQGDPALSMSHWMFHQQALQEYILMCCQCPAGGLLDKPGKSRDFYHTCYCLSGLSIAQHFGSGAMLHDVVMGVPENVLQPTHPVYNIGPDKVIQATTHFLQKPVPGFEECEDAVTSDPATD
Description: Inhibition of farnesyltransferase (3H-farnesyldiphosphate / H-Ras filter assay). In kind it is biochemical. To be noted: test compound at 10^−8 M; 3H-farnesyldiphosphate 0.6 μM, H-Ras 5.0 μM, 37° C., 30 minutes. The text has this:
The ability of the compounds of the present invention to inhibit farnesyltransferase can be measured according to the method described in J. Biol. Chem., 266: 14603 (1991) or J. Biol. Chem., 270:660-664 (1995). Procedures for determination of the inhibition of farnesylation of the oncogene protein Ras are described in J. Biol. Chem., 266:15575-15578 (1991) and U.S. Pat. No. 5,245,061. Inhibition of rat brain farnesyltransferase can also be measured in vitro using an Amersham Life Science commercial scintillation proximity assay kit and substituting a biotin-K Ras B fragment (0.1 μM final concentration) for the biotin-lamin substrate provided by Amersham. The enzyme can be purified according to Cell, 62: 81-88 (1990), utilizing steps one, two, and three. […] The percent inhibition of the farnesylation caused by the compounds of the present invention (at 10^−6 M) compared to an uninhibited control sample can be evaluated in the same Amersham test system.
The mixture was brought to 37° C., treated with enzyme, incubated for 30 minutes, treated with 1 M HCl/ethanol (1 mL) to stop the reaction, stirred for 15 minutes at room temperature, diluted with ethanol (2 mL), filtered through a 2.5 cm glass microfiber filter (Whatman) with ethanol rinses (4×2 mL). The glass transferred to a scintillation vial and treated with scintillation fluid (5 mL). The radioisotope retained on the glass fiber filter was counted and reflected the activity of the enzyme.
`Cn1cncc1C(O)(COc1ccc(C#N)cc1-c1ccc2c(c1)OCO2)c1ccc(C#N)cc1` (stereo not shown) [Example 55, 3-(1,3-benzodioxol-5-yl)-4-(2-(4-cyanophenyl)-2-hydroxy-2-(1-methyl-1H-imidazol-5-yl)ethoxy)benzonitrile] gave an inhibition at 0.01 µM of 98%.
Take `Cn1cncc1C(F)(COc1ccc(C#N)cc1-c1ccc2c(c1)OCO2)c1ccc(C#N)cc1` (stereo not shown) [Example 56, 3-(1,3-benzodioxol-5-yl)-4-(2-(4-cyanophenyl)-2-fluoro-2-(1-methyl-1H-imidazol-5-yl)ethoxy)benzonitrile]: the inhibition at 0.01 µM came to 97%.
The compound `COc1cccc(-c2cc(C#N)ccc2OCC(O)(c2ccc(C#N)cc2)c2cncn2C)c1` (stereo not shown) [Example 57, 6-(2-(4-cyanophenyl)-2-hydroxy-2-(1-methyl-1H-imidazol-5-yl)ethoxy)-3′-methoxy-1,1′-biphenyl-3-carbonitrile] had an inhibition at 0.01 µM of 98%.
On the same count and under the same terms, then `Cn1cncc1C(O)(COc1ccc(C#N)cc1-c1cccc2cccnc12)c1ccc(C#N)cc1` (stereo not shown) [Example 59, 4-(2-(4-cyanophenyl)-2-hydroxy-2-(1-methyl-1H-imidazol-5-yl)ethoxy)-3-quinolin-8-ylbenzonitrile], with 83%.
On to `Cn1cncc1C(F)(COc1ccc(C#N)cc1-c1cccc2cccnc12)c1ccc(C#N)cc1` (stereo not shown) [Example 60, 4-(2-(4-cyanophenyl)-2-fluoro-2-(1-methyl-1H-imidazol-5-yl)ethoxy)-3-quinolin-8-ylbenzonitrile], for which the inhibition at 0.01 µM is 73%.
In turn, `Cn1cncc1C(O)(COc1ccc(C#N)cc1-c1ccc(F)c(F)c1)c1ccc(C#N)cc1` (stereo not shown) [Example 61, 6-(2-(4-cyanophenyl)-2-hydroxy-2-(1-methyl-1H-imidazol-5-yl)ethoxy)-3′,4′-difluoro-1,1′-biphenyl-3-carbonitrile] yielded an inhibition at 0.01 µM of 96%.
In turn, `Cn1cncc1C(F)(COc1ccc(C#N)cc1-c1ccc(F)c(F)c1)c1ccc(C#N)cc1` (stereo not shown) [Example 62, 6-(2-(4-cyanophenyl)-2-fluoro-2-(1-methyl-1H-imidazol-5-yl)ethoxy)-3′,4′-difluoro-1,1′-biphenyl-3-carbonitrile] showed an inhibition at 0.01 µM of 93%.
For the compound `Cn1cncc1C(O)(COc1ccc(C#N)cc1-c1ccc(OC(F)(F)F)cc1)c1ccc(C#N)cc1` (stereo not shown) [Example 63, 6-(2-(4-cyanophenyl)-2-hydroxy-2-(1-methyl-1H-imidazol-5-yl)ethoxy)-4′-(trifluoromethoxy)-1,1′-biphenyl-3-carbonitrile], the “% Inhibition at 10^−8 M” value was found to be 97%.
The compound `Cn1cncc1C(F)(COc1ccc(C#N)cc1-c1ccc(OC(F)(F)F)cc1)c1ccc(C#N)cc1` (stereo not shown) [Example 64, 6-(2-(4-cyanophenyl)-2-fluoro-2-(1-methyl-1H-imidazol-5-yl)ethoxy)-4′-(trifluoromethoxy)-1,1′-biphenyl-3-carbonitrile] showed an inhibition at 0.01 µM of 90%.
The compound `Cn1cncc1C(F)(COc1ccc(C#N)cc1-c1ccc(F)c(Cl)c1)c1ccc(C#N)cc1` (stereo not shown) [Example 66, 3′-chloro-6-(2-(4-cyanophenyl)-2-fluoro-2-(1-methyl-1H-imidazol-5-yl)ethoxy)-4′-fluoro-1,1′-biphenyl-3-carbonitrile] returned an inhibition at 0.01 µM of 93%.
`Cn1cncc1C(O)(COc1ccc(C#N)cc1-c1cc(F)cc(F)c1)c1ccc(C#N)cc1` (stereo not shown) [Example 67, 6-(2-(4-cyanophenyl)-2-hydroxy-2-(1-methyl-1H-imidazol-5-yl)ethoxy)-3′,5′-difluoro-1,1′-biphenyl-3-carbonitrile] displayed an inhibition at 0.01 µM of 94%.
Take `Cn1cncc1C(F)(COc1ccc(C#N)cc1-c1cc(F)cc(F)c1)c1ccc(C#N)cc1` (stereo not shown) [Example 68, 6-(2-(4-cyanophenyl)-2-fluoro-2-(1-methyl-1H-imidazol-5-yl)ethoxy)-3′,5′-difluoro-1,1′-biphenyl-3-carbonitrile]: the inhibition at 0.01 µM came to 91%.
Same read-out and setting: for `Cn1cncc1C(O)(COc1ccc(C#N)cc1-c1cccc(OC(F)(F)F)c1)c1ccc(C#N)cc1` (stereo not shown) [Example 69, 6-(2-(4-cyanophenyl)-2-hydroxy-2-(1-methyl-1H-imidazol-5-yl)ethoxy)-3′-(trifluoromethoxy)-1,1′-biphenyl-3-carbonitrile] the value was 95%.
Compound `Cn1cncc1C(F)(COc1ccc(C#N)cc1-c1cccc(OC(F)(F)F)c1)c1ccc(C#N)cc1` (stereo not shown) [Example 70, 6-(2-(4-cyanophenyl)-2-fluoro-2-(1-methyl-1H-imidazol-5-yl)ethoxy)-3′-(trifluoromethoxy)-1,1′-biphenyl-3-carbonitrile] gave an inhibition at 0.01 µM of 94%.
For the compound `Cn1cncc1C(O)(COc1ccc(C#N)cc1-c1ccc(Cl)c(Cl)c1)c1ccc(C#N)cc1` (stereo not shown) [Example 71, 3′,4′-dichloro-6-(2-(4-cyanophenyl)-2-hydroxy-2-(1-methyl-1H-imidazol-5-yl)ethoxy)-1,1′-biphenyl-3-carbonitrile], the inhibition at 0.01 µM amounted to 97%.
In turn, `Cn1cncc1C(F)(COc1ccc(C#N)cc1-c1ccc(Cl)c(Cl)c1)c1ccc(C#N)cc1` (stereo not shown) [Example 72, 3′,4′-dichloro-6-(2-(4-cyanophenyl)-2-fluoro-2-(1-methyl-1H-imidazol-5-yl)ethoxy)-1,1′-biphenyl-3-carbonitrile] returned an inhibition at 0.01 µM of 94%.
Compound `Cn1cncc1C(O)(COc1ccc(C#N)cc1-c1cc(Cl)cc(Cl)c1)c1ccc(C#N)cc1` (stereo not shown) [Example 73, 3′,5′-dichloro-6-(2-(4-cyanophenyl)-2-hydroxy-2-(1-methyl-1H-imidazol-5-yl)ethoxy)-1,1′-biphenyl-3-carbonitrile] yielded an inhibition at 0.01 µM of 96%.
`Cn1cncc1C(F)(COc1ccc(C#N)cc1-c1cc(Cl)cc(Cl)c1)c1ccc(C#N)cc1` (stereo not shown) [Example 74, 3′,5′-dichloro-6-(2-(4-cyanophenyl)-2-fluoro-2-(1-methyl-1H-imidazol-5-yl)ethoxy)-1,1′-biphenyl-3-carbonitrile]: 0.01 µM produced 95% inhibition.
`Cn1cncc1C(O)(COc1ccc(C#N)cc1-c1cccc(F)c1)c1ccc(C#N)cc1` (stereo not shown) [Example 75, 6-(2-(4-cyanophenyl)-2-hydroxy-2-(1-methyl-1H-imidazol-5-yl)ethoxy)-3′-fluoro-1,1′-biphenyl-3-carbonitrile]: testing at 0.01 µM gave an inhibition of 96%.
`Cn1cncc1C(F)(COc1ccc(C#N)cc1-c1cccc(F)c1)c1ccc(C#N)cc1` (stereo not shown) [Example 76, 6-(2-(4-cyanophenyl)-2-fluoro-2-(1-methyl-1H-imidazol-5-yl)ethoxy)-3′-fluoro-1,1′-biphenyl-3-carbonitrile]: the inhibition at 0.01 µM amounted to 95%.
Consider `Cn1cncc1C(O)(COc1ccc(C#N)cc1-c1cccc(Cl)c1)c1ccc(C#N)cc1` (stereo not shown) [Example 77, 3′-chloro-6-(2-(4-cyanophenyl)-2-hydroxy-2-(1-methyl-1H-imidazol-5-yl)ethoxy)-1,1′-biphenyl-3-carbonitrile], for which the inhibition at 0.01 µM was found to be 98%.
Same read-out and setting: then `Cn1cncc1C(F)(COc1ccc(C#N)cc1-c1cccc(Cl)c1)c1ccc(C#N)cc1` (stereo not shown) [Example 78, 3′-chloro-6-(2-(4-cyanophenyl)-2-fluoro-2-(1-methyl-1H-imidazol-5-yl)ethoxy)-1,1′-biphenyl-3-carbonitrile], with 97%; and `Cn1cncc1C(O)(COc1ccc(C#N)cc1-c1ccc2c(c1)OC(F)(F)O2)c1ccc(C#N)cc1` (stereo not shown) [Example 79, 4-(2-(4-cyanophenyl)-2-hydroxy-2-(1-methyl-1H-imidazol-5-yl)ethoxy)-3-(2,2-difluoro-1,3-benzodioxol-5-yl)benzonitrile], with 96%.
In turn, `Cn1cncc1C(F)(COc1ccc(C#N)cc1-c1ccc2c(c1)OC(F)(F)O2)c1ccc(C#N)cc1` (stereo not shown) [Example 80, 4-(2-(4-cyanophenyl)-2-fluoro-2-(1-methyl-1H-imidazol-5-yl)ethoxy)-3-(2,2-difluoro-1,3-benzodioxol-5-yl)benzonitrile] came in with an inhibition at 0.01 µM of 90%.
Compound `Cn1cncc1C(O)(COc1ccc(C#N)cc1-c1cccc2ccccc12)c1ccc(C#N)cc1` (stereo not shown) [Example 81, 4-(2-(4-cyanophenyl)-2-hydroxy-2-(1-methyl-1H-imidazol-5-yl)ethoxy)-3-(1-naphthyl)benzonitrile] had an inhibition at 0.01 µM of 90%.
Compound `N#Cc1ccc(C(O)(COc2ccc(C#N)cc2-c2ccc(OC(F)(F)F)cc2)c2cncs2)cc1` (stereo not shown) [Example 82, 6-(2-(4-cyanophenyl)-2-hydroxy-2-(1,3-thiazol-5-yl)ethoxy)-4′-(trifluoromethoxy)-1,1′-biphenyl-3-carbonitrile] yielded an inhibition at 0.01 µM of 15%.
Compound `Cn1cncc1C(N)(COc1ccc(C#N)cc1-c1ccc(OC(F)(F)F)cc1)c1ccc(C#N)cc1` (stereo not shown) [Example 83, 6-(2-amino-2-(4-cyanophenyl)-2-(1-methyl-1H-imidazol-5-yl)ethoxy)-4′-(trifluoromethoxy)-1,1′-biphenyl-3-carbonitrile] returned an inhibition at 0.01 µM of 96%.

Still in this test, the particulars now being: test compound at 10^−9 M (stated in the cell); 3H-farnesyldiphosphate 0.6 μM, H-Ras 5.0 μM, 37° C., 30 minutes.
Turning to `Cn1cncc1C(O)(COc1ccc(C#N)cc1-c1ccc(F)c(Cl)c1)c1ccc(C#N)cc1` (stereo not shown) [Example 65, 3′-chloro-6-(2-(4-cyanophenyl)-2-hydroxy-2-(1-methyl-1H-imidazol-5-yl)ethoxy)4′-fluoro-1,1′-biphenyl-3-carbonitrile], at 0.001 µM the inhibition was 75%.
